The record followed here is patent US6855730B2, “3-methylidenyl-2-indolinone modulators of protein kinase” (Sugen, Inc., priority 1998, dated 2005).

For the assay, the target named is T1, chimeric receptor having the extra-cellular domain of EGF-R and the intra-cellular domain of Her2 (Homo sapiens, UniProt P04626).
T1 construct: fused on or other part: the same chimera
Kind of assay: EGF-induced Her2-driven BrdU incorporation. It counts as cell-based. The note with it: read-out: BrdU HER 2 driven IC50. The method, then:
The cellular/catalytic assays described herein are performed in an ELISA format. The general procedure is as follows: a compound is introduced to cells expressing the test kinase, either naturally or recombinantly, for a selected period of time after which, if the test kinase is a receptor, a ligand known to activate the receptor is added. The cells are lysed and the lysate is transferred to the wells of an ELISA plate previously coated with a specific antibody recognizing the substrate of the enzymatic phosphorylation reaction. Non-substrate components of the cell lysate are washed away and the amount of phosphorylation on the substrate is detected with an antibody specifically recognizing phosphotyrosine compared with control cells that were not contacted with a test compound. The cellular/biologic assays described herein measure the amount of DNA made in response to activation of a test kinase, which is a general measure of a proliferative response. The general procedure for this assay is as follows: a compound is introduced to cells expressing the test kinase, either naturally or recombinantly, for a selected period of time after which, if the test kinase is a receptor, a ligand known to activate the receptor is added. After incubation at least overnight, a DNA labeling reagent such as Bromodeoxyuridine (BrdU) or 3H-thymidine is added. The amount of labeled DNA is detected with either an anti-BrdU antibody or by measuring radioactivity and is compared to control cells not contacted with a test compound.
EGF-Induced Her2-Driven BrdU Incorporation
Protocol • (1) Cells-are seeded at 8000 cells/well in DMEM, 10% CS, 2mM Gln in a 96-well plate. Cells are incubated overnight at 37° C. in 5% CO2. • (2) After 24 hours, the cells are washed with PBS, and then are serum starved in serum free medium (0% CS DMEM with 0.1% BSA) for 24 hours. • (3) On day 3, ligand (EGF=2 nM, prepared in DMEM with 0.1% BSA) and test compounds are added to the cells simultaneously. The negative control wells receive serum free DMEM with 0.1% BSA only, the positive control cells receive the ligand (EGF) but no test compound. Test compounds are prepared in serum free DMEM with ligand in a 96 well plate, and serially diluted for 7 test concentrations. • (4) After 20 hours of ligand activation, diluted BrdU labeling reagent (1:100 in DMEM, 0.1% BSA) is added and the cells are incubated with BrdU (final concentration=10 μM) for 1.5 hours. • (5) After incubation with labeling reagent, the medium is removed by decanting and tapping the inverted plate on a paper towel. FixDenat solution is added (50 μl/well) and the plates are incubated at room temperature for 45 minutes on a plate shaker. • (6) The FixDenat solution is thoroughly removed by decanting and tapping the inverted plate on a paper towel. Milk is added (5% dehydrated milk in PBS, 200 μ/well) as a blocking solution and the plate is incubated for 30 minutes at room temperature on a plate shaker. • (7) The blocking solution is removed by decanting and the wells are washed once with PBS. Anti-BrdU-POD solution (1:100 dilution in PBS, 1% BSA) is added (100 μl/well) and the plate is incubated for 90 minutes at room temperature on a plate shaker. • (8) The antibody conjugate is thoroughly removed by decanting and rinsing the wells 5 times with PBS, and the plate is dried by inverting and tapping on a paper towel. • (9) TMB substrate solution is added (100 μl/well) and incubated for 20 minutes at room temperature on a plate shaker until color development is sufficient for photometric detection. • (10) The absorbance of the samples are measured at 410 nm (in “dual wavelength” mode with a filter reading at 490 nm, as a reference wavelength) on a Dynatech ELISA plate reader.
Background: Uptake of a labelled nucleoside into DNA is a usual measure of proliferation.

T1 sequence (P04626 676-1255 limits assumed, change not shown): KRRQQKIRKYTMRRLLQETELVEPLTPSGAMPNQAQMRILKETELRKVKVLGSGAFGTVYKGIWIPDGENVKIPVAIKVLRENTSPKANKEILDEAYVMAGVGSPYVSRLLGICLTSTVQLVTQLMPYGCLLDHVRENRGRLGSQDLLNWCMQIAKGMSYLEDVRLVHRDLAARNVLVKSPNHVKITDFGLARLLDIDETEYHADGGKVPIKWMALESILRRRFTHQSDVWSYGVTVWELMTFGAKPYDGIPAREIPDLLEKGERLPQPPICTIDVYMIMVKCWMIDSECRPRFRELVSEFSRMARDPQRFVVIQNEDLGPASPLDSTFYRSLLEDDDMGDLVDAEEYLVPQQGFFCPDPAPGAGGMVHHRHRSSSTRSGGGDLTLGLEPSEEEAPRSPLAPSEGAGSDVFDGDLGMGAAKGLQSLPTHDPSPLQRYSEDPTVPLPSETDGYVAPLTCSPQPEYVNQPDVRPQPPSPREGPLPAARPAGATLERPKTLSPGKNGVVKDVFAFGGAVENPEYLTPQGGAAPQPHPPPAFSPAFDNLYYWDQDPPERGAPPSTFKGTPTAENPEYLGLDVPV

Turning to `COc1c(C(C)C)cc(/C=C2/C(=O)Nc3ccccc32)cc1C(C)C` [Example 1, 3-(3,5-Diisopropyl-4-methoxybenzylidene)-1,3-dihydroindol-2-one], the IC50 worked out at 8.7 µM.

One may read the IC50 as the concentration that gives 50% inhibition.
